Measured values reported in patent US10227331B2 (priority 2015, dated 2019).

Columns and labels:
[1] = test system: P. aeruginosa expressing IMP-1, efflux− (MB9799); assay: Efflux: concentration of MBL inhibitor which restores susceptibility to imipenem; format: cell-based, Pseudomonas aeruginosa; conditions: imipenem at 2 μg/mL, in the presence of a class A, C, D serine β-lactamase inhibitor closely related to relebactam
Excerpt: (§1) The strain background is Pseudomonas aeruginosa PAO1.

[2] = test system: P. aeruginosa expressing IMP-1, efflux+ (MB9798); format: cell-based, Pseudomonas aeruginosa; conditions: for P. aeruginosa expressing IMP-1, efflux+ (MB9798) MITC95: imipenem at 2 μg/mL, in the presence of a class A, C, D serine β-lactamase inhibitor closely related to relebactam; for Efflux ratio: ratio MITC95 PA_9798/MITC95 PA_9799
Excerpt: as §1

IMP-1 = IMP-1 (Serratia marcescens, UniProt P52699); assay: biochemical; format: biochemical; conditions: CCF2-FA substrate, 2 hours at 25° C; read-out: IMP-1 IC50
Procedure, shortened: (§2)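 IC50 values derive from 4-parameter fits of percent inhibition against inhibitor concentration on semi-log axes. Activity was monitored by fluorescence with the CCF2-FA substrate after a 2-hour, 25° C incubation of compound, enzyme and substrate.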

NDM-1 = NDM-1 (Klebsiella pneumoniae, UniProt C7C422); assay: biochemical; format: biochemical; conditions: CCF2-FA substrate, 2 hours at 25° C; read-out: NDM-1 IC50
Procedure, shortened: as §2

VIM-1 = VIM-1 (Pseudomonas aeruginosa (strain ATCC 15692 / DSM 22644 / CIP 104116 / JCM 14847 / LMG 12228 / 1C / PRS 101 / PAO1), UniProt A0A0F7KYQ8); assay: biochemical; conditions: CCF2-FA substrate, 2 hours at 25° C
Procedure, shortened: as §2

[3] = test system: Klebsiella pneumoniae expressing VIM-1 (IHMA599644); format: cell-based; conditions: with imipenem 1 μg/ml, 95% inhibition of bacterial growth; for Klebsiella pneumoniae MITC95: VIM-1 (IHMA599644)
Procedure, shortened: (§3)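 Restoration of imipenem susceptibility (1 μg/ml imipenem) was judged by absorbance after 22–24 h at 35° C. Test compound was added to bacteria suspended 1:100 in 1.1× CAMHB from overnight blood-agar cultures.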

[4] = test system: Escherichia coli expressing NDM-1 (CLB30005, CLB30016); format: cell-based; conditions: with imipenem 1 μg/ml, 95% inhibition of bacterial growth; for Escherichia coli MITC95: NDM-1 (CLB30016)
Procedure, shortened: as §3

[5] = test system: Serratia marcescens expressing IMP-1 (CL5741); format: cell-based; conditions: with imipenem 1 μg/ml, 95% inhibition of bacterial growth; for Serratia marcescens MITC95: IMP-1 (CL5741)
Procedure, shortened: as §3

IMP-1, sequence (P52699 whole entry, looked up, species assumed): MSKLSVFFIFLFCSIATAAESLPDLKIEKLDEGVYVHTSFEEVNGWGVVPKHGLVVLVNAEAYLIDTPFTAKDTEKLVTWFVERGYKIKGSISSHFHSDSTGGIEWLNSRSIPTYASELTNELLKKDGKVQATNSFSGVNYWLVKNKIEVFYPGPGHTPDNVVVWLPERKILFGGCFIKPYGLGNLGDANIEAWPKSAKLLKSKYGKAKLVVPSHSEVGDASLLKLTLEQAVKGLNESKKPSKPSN
NDM-1, sequence (C7C422 whole entry, looked up, species assumed): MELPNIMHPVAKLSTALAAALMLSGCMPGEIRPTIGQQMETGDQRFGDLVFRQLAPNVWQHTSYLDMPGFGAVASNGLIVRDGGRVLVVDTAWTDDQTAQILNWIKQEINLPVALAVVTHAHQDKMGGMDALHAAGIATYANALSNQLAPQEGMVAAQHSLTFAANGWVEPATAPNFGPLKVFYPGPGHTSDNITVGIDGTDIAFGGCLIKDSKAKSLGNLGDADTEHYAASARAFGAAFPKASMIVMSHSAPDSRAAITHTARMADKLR

Row | Compound | P. aeruginosa expressing IMP-1, efflux− (MB9799) MITC95 [1] | P. aeruginosa expressing IMP-1, efflux+ (MB9798) MITC95 [2] | Efflux ratio [2] | IC50 (IMP-1) | IC50 (NDM-1) | IC50 (VIM-1) | Klebsiella pneumoniae MITC95 [3] | Escherichia coli MITC95 [4] | Serratia marcescens MITC95 [5] | Klebsiella pneumoniae expressing VIM-1 (IHMA599644) MITC95 [3] | Escherichia coli expressing NDM-1 (CLB30016) MITC95 [4] | Serratia marcescens expressing IMP-1 (CL5741) MITC95 [5]
1 | COC(=O)c1nc2c(-c3ccc(S(=O)(=O)C4CNC4)c(S(N)(=O)=O)c3-c3nn[nH]n3)cccc2[nH]1 [Example 252, Methyl 4-(4-(azetidin-3-ylsulfonyl)-3-sulfamoyl-2-(2H-tetrazol-5-yl)phenyl)-1H-benzo[d]imidazole-2-carboxylate] | 3.125 µM | 3.125 µM | 1.00 | 0.423 nM | 0.0464 nM | 0.209 nM | 6.25 µM | 1.563 µM | 3.125 µM | – | – | –
2 | NS(=O)(=O)c1c(SC2CNC2)ccc(-c2cnc3ccccn23)c1-c1nn[nH]n1 [Example 7, 6-(azetidin-3-ylthio)-3-(imidazo[1,2-a]pyridin-3-yl)-2-(2H-tetrazol-5-yl)benzenesulfonamide] | 3.125 µM | 25 µM | 8.00 | 50.4 nM | 7.55 nM | 25.6 nM | – | – | – | 6.25 µM | 0.3906 µM | 3.125 µM
3 | C[C@@H](CN)S(=O)(=O)c1ccc(-c2cccc3sc(N)nc23)c(-c2nn[nH]n2)c1S(N)(=O)=O [Example 286, 3-(2-aminobenzo[d]thiazol-4-yl)-6-((S)-1-aminopropan-2-ylsulfonyl)-2-(2H-tetrazol-5-yl)benzenesulfonamide] | 0.7813 µM | 1.563 µM | 2.00 | 0.323 nM | 0.0934 nM | 0.265 nM | 1.563 µM | 0.7813 µM | 0.7813 µM | – | – | –
4 | CS(=O)(=O)c1ccc(-c2cccc3nc(N)[nH]c23)c(-c2nn[nH]n2)c1S(N)(=O)=O [Example 240, 3-(2-Amino-1H-benzo[d]imidazol-7-yl)-6-(methylsulfonyl)-2-(2H-tetrazol-5-yl) benzenesulfonamide] | 12.5 µM | 50 µM | 4.00 | 7.46 nM | 4.77 nM | 2.6 nM | – | – | – | 25 µM | 3.125 µM | 12.5 µM
5 | NS(=O)(=O)c1c(S(=O)(=O)C2CNC2)ccc(-c2cccc3[nH]ncc23)c1-c1nnn[nH]1.O=C(O)C(F)(F)F [Example 100, 3-((4-(1H-indazol-4-yl)-2-sulfamoyl-3-(1H-tetrazol-5-yl)phenyl)sulfonyl)azetidin-1-ium 2,2,2-trifluoroacetate] | 1.563 µM | 6.25 µM | 4.00 | 1.61 nM | 0.358 nM | 0.331 nM | – | – | – | 3.125 µM | 6.25 µM | 3.125 µM
6 | Nc1nc2c(-c3ccc(S(=O)(=O)[C@H]4CN[C@H](CO)C4)c(S(N)(=O)=O)c3-c3nn[nH]n3)cccc2[nH]1 [Example 291, 3-(2-amino-1H-benzo[d]imidazol-4-yl)-6-((3R,5S)-5-(hydroxymethyl)pyrrolidin-3-ylsulfonyl)-2-(2H-tetrazol-5-yl)benzenesulfonamide] | 0.7813 µM | 0.7813 µM | 1.00 | 0.959 nM | 0.195 nM | 0.54 nM | 1.563 µM | 0.7813 µM | 0.7813 µM | – | – | –
7 | NS(=O)(=O)c1c(S(=O)(=O)[C@H]2CCNC2)ccc(-c2cccc3cn[nH]c23)c1-c1nn[nH]n1 [Example 186, 3-(1H-indazol-7-yl)-6-((S)-pyrrolidin-3-ylsulfonyl)-2-(2H-tetrazol-5-yl)benzenesulfonamide] | 0.7813 µM | 1.563 µM | 2.00 | 0.541 nM | 0.246 nM | 0.228 nM | – | – | – | 1.563 µM | 1.563 µM | 1.563 µM
8 | C[C@@H](N)CS(=O)(=O)c1ccc(-c2cccc3sc(N)nc23)c(-c2nn[nH]n2)c1S(N)(=O)=O [Example 268, 3-(2-aminobenzo[d]thiazol-4-yl)-6-((R)-2-aminopropylsulfonyl)-2-(2H-tetrazol-5-yl)benzenesulfonamide] | 1.563 µM | 1.563 µM | 1.00 | 0.363 nM | 0.177 nM | 0.329 nM | 3.125 µM | 1.563 µM | 1.563 µM | – | – | –
9 | NCCS(=O)(=O)c1ccc(-c2cccc(-n3cccn3)c2)c(-c2nnn[nH]2)c1S(N)(=O)=O.O=C(O)C(F)(F)F [Example 156, 2-((3′-(1H-pyrazol-1-yl)-3-sulfamoyl-2-(1H-tetrazol-5-yl)-[1,1′-biphenyl]-4-yl)sulfonyl)ethanaminium 2,2,2-trifluoroacetate] | 1.563 µM | 50 µM | 31.99 | 0.981 nM | 1.08 nM | 0.743 nM | – | – | – | 6.25 µM | 0.7813 µM | 1.563 µM
10 | NCCS(=O)(=O)c1ccc(-c2ccc3c(c2)C(=O)NC3)c(-c2nnn[nH]2)c1S(N)(=O)=O.O=C(O)C(F)(F)F [Example 140, 2-((4-(3-oxoisoindolin-5-yl)-2-sulfamoyl-3-(1H-tetrazol-5-yl)phenyl)sulfonyl)ethanaminium 2,2,2-trifluoroacetate] | 0.7813 µM | 3.125 µM | 4.00 | 0.488 nM | 0.844 nM | 0.223 nM | – | – | – | 1.563 µM | 1.563 µM | 1.563 µM
11 | N[C@H](CO)CS(=O)(=O)c1ccc(-c2cccc3[nH]cnc23)c(-c2nn[nH]n2)c1S(N)(=O)=O [Example 356, (R)-6-((2-amino-3-hydroxypropyl)sulfonyl)-3-(1H-benzo[d]imidazol-4-yl)-2-(2H-tetrazol-5-yl) benzenesulfonamide] | 1.563 µM | 1.563 µM | 1.00 | 0.496 nM | 0.27 nM | 0.344 nM | 3.125 µM | 1.563 µM | 1.563 µM | – | – | –
